The NIST ThermoML archive (doi:10.1021/je034162x)

Conditions: 101.33 kPa, Liquid, Hot wire method

C1CCCC1 [cyclopentane]
Conditions | thermal conductivity [W/m/K] | thermal diffusivity [m2/s]
257.08 K | 0.1428 | –
257.27 K | 0.1426 | –
257.4 K | 0.1425 | –
257.78 K | – | 1.11e-07
258.26 K | – | 1.11e-07
258.6 K | – | 1.11e-07
276.13 K | 0.1349 | –
276.33 K | 0.1348 | –
276.47 K | 0.1348 | –
276.83 K | – | 1.03e-07
277.31 K | – | 1.03e-07
277.68 K | – | 1.03e-07
293.63 K | 0.1281 | –
293.83 K | 0.1279 | –
293.97 K | 0.1278 | –
294.33 K | – | 9.64e-08
294.82 K | – | 9.62e-08
295.17 K | – | 9.61e-08
300.67 K | 0.1254 | –
300.87 K | 0.1253 | –
301.01 K | 0.1251 | –
301.34 K | – | 9.3e-08
301.83 K | – | 9.29e-08
302.17 K | – | 9.28e-08
316.21 K | 0.1195 | –
316.4 K | 0.1193 | –
316.54 K | 0.1192 | –
316.87 K | – | 8.68e-08
317.34 K | – | 8.66e-08
317.67 K | – | 8.65e-08

C1=CC2C=CC1C2 [bicyclo[2.2.1]hepta-2,5-diene]
Conditions | thermal conductivity [W/m/K] | thermal diffusivity [m2/s]
258.57 K | 0.1485 | –
258.7 K | 0.1484 | –
258.8 K | 0.1484 | –
258.99 K | – | 1.08e-07
259.32 K | – | 1.08e-07
259.55 K | – | 1.09e-07
276.78 K | 0.1426 | –
276.89 K | 0.143 | –
276.97 K | 0.1429 | –
277.21 K | – | 1.02e-07
277.47 K | – | 1.02e-07
277.66 K | – | 1.01e-07
296.23 K | 0.1371 | –
296.35 K | 0.1369 | –
296.43 K | 0.1368 | –
296.61 K | – | 9.43e-08
296.89 K | – | 9.44e-08
297.1 K | – | 9.45e-08
313.27 K | 0.1315 | –
313.38 K | 0.1314 | –
313.46 K | 0.1313 | –
313.63 K | – | 8.85e-08
313.9 K | – | 8.86e-08
314.1 K | – | 8.86e-08
331.81 K | 0.1256 | –
331.91 K | 0.1255 | –
331.98 K | 0.1254 | –
332.15 K | – | 8.25e-08
332.4 K | – | 8.25e-08
332.57 K | – | 8.24e-08

Cc1ccc(C)c(C)c1 [1,2,4-trimethylbenzene]
Conditions | thermal conductivity [W/m/K] | thermal diffusivity [m2/s]
257.58 K | 0.1345 | –
257.79 K | 0.1344 | –
257.93 K | 0.1344 | –
258.32 K | – | 8.89e-08
258.85 K | – | 8.91e-08
259.23 K | – | 8.92e-08
276.33 K | 0.1314 | –
276.54 K | 0.1313 | –
276.69 K | 0.1312 | –
277.09 K | – | 8.61e-08
277.61 K | – | 8.58e-08
277.99 K | – | 8.6e-08
283.32 K | 0.1301 | –
283.54 K | 0.13 | –
283.68 K | 0.1299 | –
284.07 K | – | 8.48e-08
284.63 K | – | 8.52e-08
284.98 K | – | 8.47e-08
295.54 K | 0.1277 | –
295.76 K | 0.1277 | –
295.91 K | 0.1275 | –
296.3 K | – | 8.26e-08
296.84 K | – | 8.28e-08
297.21 K | – | 8.25e-08
312.75 K | 0.1244 | –
312.98 K | 0.1242 | –
313.13 K | 0.1241 | –
313.53 K | – | 8e-08
314.08 K | – | 8e-08
314.44 K | – | 7.96e-08
330.69 K | 0.1205 | –
330.93 K | 0.1205 | –
331.09 K | 0.1204 | –
331.46 K | – | 7.65e-08
332.04 K | – | 7.69e-08
332.43 K | – | 7.68e-08

C1=CCC=CC1 [1,4-cyclohexadiene]
Conditions | thermal conductivity [W/m/K] | thermal diffusivity [m2/s]
258.46 K | 0.1586 | –
258.67 K | 0.1584 | –
258.82 K | 0.1583 | –
259.36 K | – | 1.06e-07
259.93 K | – | 1.05e-07
260.35 K | – | 1.05e-07
264.86 K | 0.1564 | –
265.08 K | 0.1563 | –
265.23 K | 0.1562 | –
265.75 K | – | 1.04e-07
266.36 K | – | 1.04e-07
266.77 K | – | 1.04e-07
279.38 K | 0.1514 | –
279.6 K | 0.1512 | –
279.76 K | 0.1511 | –
280.29 K | – | 9.95e-08
280.9 K | – | 9.93e-08
281.33 K | – | 9.92e-08
296.2 K | 0.1455 | –
296.43 K | 0.1453 | –
296.6 K | 0.1452 | –
297.14 K | – | 9.5e-08
297.75 K | – | 9.45e-08
298.19 K | – | 9.45e-08
313.9 K | 0.1393 | –
314.13 K | 0.139 | –
314.31 K | 0.139 | –
314.86 K | – | 9.01e-08
315.48 K | – | 8.95e-08
315.93 K | – | 8.95e-08
328.51 K | 0.1343 | –
328.75 K | 0.1341 | –
328.93 K | 0.134 | –
329.48 K | – | 8.61e-08
330.11 K | – | 8.57e-08
330.58 K | – | 8.57e-08

C=C(C)C(C)C [2,3-dimethyl-1-butene]
Conditions | thermal conductivity [W/m/K] | thermal diffusivity [m2/s]
258.98 K | 0.117 | –
259.29 K | 0.1169 | –
259.4 K | 0.1168 | –
260.37 K | – | 8.17e-08
261.29 K | – | 8.19e-08
261.55 K | – | 8.16e-08
278.29 K | 0.1108 | –
278.63 K | 0.1106 | –
278.87 K | 0.1105 | –
279.73 K | – | 7.65e-08
280.7 K | – | 7.67e-08
281.39 K | – | 7.68e-08
294.18 K | 0.1058 | –
294.53 K | 0.1056 | –
294.78 K | 0.1055 | –
295.65 K | – | 7.3e-08
296.68 K | – | 7.29e-08
297.38 K | – | 7.28e-08
312.86 K | 0.1002 | –
313.23 K | 0.1 | –
313.5 K | 0.09991 | –
314.43 K | – | 6.88e-08
315.45 K | – | 6.84e-08
316.18 K | – | 6.83e-08
322.51 K | 0.0974 | –
322.9 K | 0.0973 | –
323.18 K | 0.0972 | –
324.07 K | – | 6.6e-08
325.17 K | – | 6.65e-08
325.9 K | – | 6.62e-08
326.52 K | 0.09639 | –
326.91 K | 0.09621 | –
327.21 K | 0.09612 | –
328.13 K | – | 6.58e-08
329.22 K | – | 6.58e-08
330.05 K | – | 6.62e-08

C1=CCCC=C1 [1,3-cyclohexadiene]
Conditions | thermal conductivity [W/m/K] | thermal diffusivity [m2/s]
258.35 K | 0.1451 | –
258.52 K | 0.1449 | –
258.62 K | 0.1448 | –
258.89 K | – | 8.41e-08
259.3 K | – | 8.45e-08
259.56 K | – | 8.41e-08
264.66 K | 0.1428 | –
264.8 K | 0.1426 | –
264.89 K | 0.1424 | –
265.09 K | – | 7.72e-08
265.41 K | – | 7.72e-08
265.61 K | – | 7.69e-08
279.17 K | 0.138 | –
279.31 K | 0.1379 | –
279.41 K | 0.1378 | –
279.59 K | – | 7.36e-08
279.93 K | – | 7.41e-08
280.16 K | – | 7.41e-08
296.25 K | 0.1334 | –
296.51 K | 0.1332 | –
296.69 K | 0.1331 | –
297.24 K | – | 8.95e-08
297.94 K | – | 8.98e-08
298.42 K | – | 8.98e-08
313.95 K | 0.1278 | –
314.22 K | 0.1276 | –
314.41 K | 0.1275 | –
314.96 K | – | 8.51e-08
315.67 K | – | 8.53e-08
316.17 K | – | 8.51e-08
328.56 K | 0.1232 | –
328.84 K | 0.1231 | –
329.08 K | 0.1231 | –
329.6 K | – | 8.17e-08
330.32 K | – | 8.17e-08
330.99 K | – | 8.19e-08
